Activity calls are given as the source filed them. The calls are words filed in the database; no cut-off is given here.
Key:
[1] = Intrinsic clearance in rat liver microsomes at 1 uM preincubated for 5 mins followed by NADPH addition measured for 60 mins by LC-MS/MS analysis; type: ADME, Microsome; settings: time 65 min, read-out: CLH
[2] = Apparent permeability across apical to basal side in MDCK cells expressing MDR1 at 5 uM incubated for 60 mins by LC/MS/MS analysis; type: ADME, cell-based, Canis lupus familiaris, MDCK1; settings: dog
[3] = Clearance in Sprague-Dawley rat at 1 mg/kg, iv measured for 24 hrs by LC-MS/MS analysis; type: ADME, organism-based; settings: in vivo
[4] = Volume of distribution at steady state in Sprague-Dawley rat at 1 mg/kg, iv measured for 24 hrs by LC-MS/MS analysis; type: ADME, organism-based; settings: in vivo, read-out: Vdss
[5] = Oral bioavailability in Sprague-Dawley rat at 5 mg/kg measured for 24 hrs by LC-MS/MS analysis; type: ADME, organism-based; settings: in vivo
[6] = Cmax in Sprague-Dawley rat at 5 mg/kg, po measured for 24 hrs by LC-MS/MS analysis; type: ADME, organism-based; design: dose 5 mg/kg, time 24 hrs, route po; settings: in vivo
[7] = Half life in Sprague-Dawley rat at 5 mg/kg, po measured for 24 hrs by LC-MS/MS analysis; type: ADME, organism-based; settings: in vivo
[8] = AUC (infinity) in Sprague-Dawley rat at 5 mg/kg, po measured for 24 hrs by LC-MS/MS analysis; type: ADME, organism-based; design: time 24 hrs, dose 5 mg/kg, route po; settings: in vivo
[9] = biological target: TRAF2 and NCK-interacting protein kinase (Homo sapiens, UniProt Q9UKE5); test: Inhibition of TNIK (unknown origin)
[10] = Intrinsic clearance in mouse liver microsomes at 1 uM preincubated for 5 mins followed by NADPH addition measured for 60 mins by LC-MS/MS analysis; type: ADME, Microsome; settings: time 65 min, read-out: CLH
[11] = Intrinsic clearance in dog liver microsomes at 1 uM preincubated for 5 mins followed by NADPH addition measured for 60 mins by LC-MS/MS analysis; type: ADME, Canis lupus familiaris, Microsome; settings: time 65 min, read-out: CLH
[12] = Intrinsic clearance in cynomolgus monkey liver microsomes at 1 uM preincubated for 5 mins followed by NADPH addition measured for 60 mins by LC-MS/MS analysis; type: ADME, Macaca fascicularis, Microsome; settings: time 65 min, read-out: CLH
Cytochrome P450 1A2 = Cytochrome P450 1A2 (Homo sapiens, UniProt P05177); test: Inhibition of CYP1A2 in human liver microsomes incubated for 10 mins in presence of NADPH by LC-MS/MS analysis; type: ADME, Microsome
Chain of Cytochrome P450 1A2 (P05177 whole entry): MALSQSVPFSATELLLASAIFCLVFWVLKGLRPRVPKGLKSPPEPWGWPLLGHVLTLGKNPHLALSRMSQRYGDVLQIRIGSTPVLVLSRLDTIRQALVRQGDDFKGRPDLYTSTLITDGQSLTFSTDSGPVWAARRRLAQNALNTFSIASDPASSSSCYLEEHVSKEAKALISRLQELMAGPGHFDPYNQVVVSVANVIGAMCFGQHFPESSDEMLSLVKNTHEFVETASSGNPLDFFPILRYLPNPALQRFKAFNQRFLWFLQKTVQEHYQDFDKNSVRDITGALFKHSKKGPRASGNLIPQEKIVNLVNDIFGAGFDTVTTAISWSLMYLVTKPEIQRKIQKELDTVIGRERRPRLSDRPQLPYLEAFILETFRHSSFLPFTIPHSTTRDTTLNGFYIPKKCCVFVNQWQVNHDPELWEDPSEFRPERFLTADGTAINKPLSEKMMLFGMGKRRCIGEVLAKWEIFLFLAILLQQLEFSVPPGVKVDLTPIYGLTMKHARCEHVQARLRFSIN

Cytochrome P450 2C8 = Cytochrome P450 2C8 (Homo sapiens, UniProt P10632); test: Inhibition of CYP2C8 in human liver microsomes incubated for 10 mins in presence of NADPH by LC-MS/MS analysis; type: ADME, Microsome
Chain of Cytochrome P450 2C8 (P10632 whole entry): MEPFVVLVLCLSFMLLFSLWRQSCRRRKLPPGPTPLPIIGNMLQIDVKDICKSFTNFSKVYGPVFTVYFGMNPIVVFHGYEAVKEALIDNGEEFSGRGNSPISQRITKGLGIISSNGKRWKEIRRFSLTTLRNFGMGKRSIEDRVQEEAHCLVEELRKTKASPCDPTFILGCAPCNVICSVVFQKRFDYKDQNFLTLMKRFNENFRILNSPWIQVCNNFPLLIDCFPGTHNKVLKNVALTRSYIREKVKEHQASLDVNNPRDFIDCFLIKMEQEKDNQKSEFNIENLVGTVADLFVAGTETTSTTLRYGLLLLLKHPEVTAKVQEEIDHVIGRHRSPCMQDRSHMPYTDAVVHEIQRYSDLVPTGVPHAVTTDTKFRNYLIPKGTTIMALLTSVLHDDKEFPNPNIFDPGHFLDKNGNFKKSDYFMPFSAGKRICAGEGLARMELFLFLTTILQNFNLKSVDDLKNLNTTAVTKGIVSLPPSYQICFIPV

Cytochrome P450 2C9 = Cytochrome P450 2C9 (Homo sapiens, UniProt P11712); test: Inhibition of CYP2C9 in human liver microsomes incubated for 10 mins in presence of NADPH by LC-MS/MS analysis; type: ADME, Microsome
Chain of Cytochrome P450 2C9 (P11712 whole entry): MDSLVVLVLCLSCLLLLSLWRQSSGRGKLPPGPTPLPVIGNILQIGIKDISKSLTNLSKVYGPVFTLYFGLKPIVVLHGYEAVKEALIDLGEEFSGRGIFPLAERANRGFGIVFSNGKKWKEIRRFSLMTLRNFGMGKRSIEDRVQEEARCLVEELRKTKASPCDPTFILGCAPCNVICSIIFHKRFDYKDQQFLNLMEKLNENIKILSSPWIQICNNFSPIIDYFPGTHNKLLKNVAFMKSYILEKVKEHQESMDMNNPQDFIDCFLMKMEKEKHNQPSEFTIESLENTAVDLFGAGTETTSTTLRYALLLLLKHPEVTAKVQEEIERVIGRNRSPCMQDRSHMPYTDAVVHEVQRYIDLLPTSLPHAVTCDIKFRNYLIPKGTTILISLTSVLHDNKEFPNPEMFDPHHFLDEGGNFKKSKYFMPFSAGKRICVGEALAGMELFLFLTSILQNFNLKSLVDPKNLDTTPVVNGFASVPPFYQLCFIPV

Cytochrome P450 2C19 = Cytochrome P450 2C19 (Homo sapiens, UniProt P33261); test: Inhibition of CYP2C19 in human liver microsomes incubated for 10 mins in presence of NADPH by LC-MS/MS analysis; type: ADME, Microsome
Chain of Cytochrome P450 2C19 (P33261 whole entry): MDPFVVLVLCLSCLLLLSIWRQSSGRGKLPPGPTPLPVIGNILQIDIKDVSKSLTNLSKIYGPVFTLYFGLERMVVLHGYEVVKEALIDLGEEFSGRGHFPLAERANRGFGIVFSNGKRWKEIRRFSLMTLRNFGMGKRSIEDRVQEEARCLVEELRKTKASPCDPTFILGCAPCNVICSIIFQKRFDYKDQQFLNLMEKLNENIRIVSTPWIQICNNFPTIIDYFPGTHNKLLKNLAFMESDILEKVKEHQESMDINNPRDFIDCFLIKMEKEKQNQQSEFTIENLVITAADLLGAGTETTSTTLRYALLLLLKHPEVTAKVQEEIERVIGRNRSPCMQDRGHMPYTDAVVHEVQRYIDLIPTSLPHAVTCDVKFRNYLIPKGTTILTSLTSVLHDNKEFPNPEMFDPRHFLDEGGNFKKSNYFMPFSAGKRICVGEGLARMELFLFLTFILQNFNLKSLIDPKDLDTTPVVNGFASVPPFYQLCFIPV

Cytochrome P450 2D6 = Cytochrome P450 2D6 (Homo sapiens, UniProt P10635); test: Inhibition of CYP2D6 in human liver microsomes incubated for 10 mins in presence of NADPH by LC-MS/MS analysis; type: ADME, Microsome
Chain of Cytochrome P450 2D6 (P10635 whole entry): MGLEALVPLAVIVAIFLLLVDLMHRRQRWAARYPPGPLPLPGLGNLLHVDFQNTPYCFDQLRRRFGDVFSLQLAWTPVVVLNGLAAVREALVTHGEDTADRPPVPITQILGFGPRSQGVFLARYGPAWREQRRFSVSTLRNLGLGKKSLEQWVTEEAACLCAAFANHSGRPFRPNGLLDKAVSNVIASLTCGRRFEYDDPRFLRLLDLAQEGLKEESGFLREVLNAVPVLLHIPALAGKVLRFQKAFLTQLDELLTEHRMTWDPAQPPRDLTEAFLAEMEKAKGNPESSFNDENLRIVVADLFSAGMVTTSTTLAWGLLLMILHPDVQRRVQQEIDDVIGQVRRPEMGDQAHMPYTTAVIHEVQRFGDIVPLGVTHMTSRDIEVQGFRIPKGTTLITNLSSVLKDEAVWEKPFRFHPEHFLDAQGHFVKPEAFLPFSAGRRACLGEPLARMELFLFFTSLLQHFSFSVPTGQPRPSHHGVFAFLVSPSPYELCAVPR

Cytochrome P450 3A4 = Cytochrome P450 3A4 (Homo sapiens, UniProt P08684); test: Inhibition of CYP3A4 in human liver microsomes using midazolam as substrate incubated for 5 mins in presence of NADPH by LC-MS/MS analysis; type: ADME, Microsome
Chain of Cytochrome P450 3A4 (P08684 whole entry, canonical isoform): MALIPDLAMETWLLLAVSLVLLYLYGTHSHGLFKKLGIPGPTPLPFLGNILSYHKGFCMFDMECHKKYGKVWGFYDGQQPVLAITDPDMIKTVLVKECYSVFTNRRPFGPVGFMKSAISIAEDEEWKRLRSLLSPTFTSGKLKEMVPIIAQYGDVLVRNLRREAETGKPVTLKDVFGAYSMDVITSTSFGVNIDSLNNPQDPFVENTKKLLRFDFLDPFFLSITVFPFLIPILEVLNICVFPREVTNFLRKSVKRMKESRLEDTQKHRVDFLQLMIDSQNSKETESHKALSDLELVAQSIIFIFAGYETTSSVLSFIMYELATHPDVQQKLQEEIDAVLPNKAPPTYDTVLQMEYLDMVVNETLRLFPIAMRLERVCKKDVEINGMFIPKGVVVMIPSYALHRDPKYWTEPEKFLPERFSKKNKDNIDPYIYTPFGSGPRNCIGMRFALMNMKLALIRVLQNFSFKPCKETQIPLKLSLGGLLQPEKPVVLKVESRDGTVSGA

[13] = biological target: Casein kinase I isoform alpha (Homo sapiens, UniProt P48729); test: Inhibition of CK1 alpha (unknown origin)
Chain of Casein kinase I isoform alpha (P48729 whole entry, canonical isoform): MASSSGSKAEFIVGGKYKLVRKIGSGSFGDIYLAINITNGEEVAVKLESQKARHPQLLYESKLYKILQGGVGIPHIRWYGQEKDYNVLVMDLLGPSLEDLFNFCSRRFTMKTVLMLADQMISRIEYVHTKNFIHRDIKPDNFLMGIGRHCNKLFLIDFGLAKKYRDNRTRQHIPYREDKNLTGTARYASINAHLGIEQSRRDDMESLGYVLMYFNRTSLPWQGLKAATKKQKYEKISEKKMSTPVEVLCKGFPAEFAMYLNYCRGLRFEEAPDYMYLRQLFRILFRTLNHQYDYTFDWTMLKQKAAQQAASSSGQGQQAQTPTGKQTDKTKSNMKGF

[14] = biological target: Casein kinase I isoform epsilon (Homo sapiens, UniProt P49674); test: Inhibition of CK1 epsilon (unknown origin)
Chain of Casein kinase I isoform epsilon (P49674 whole entry, canonical isoform): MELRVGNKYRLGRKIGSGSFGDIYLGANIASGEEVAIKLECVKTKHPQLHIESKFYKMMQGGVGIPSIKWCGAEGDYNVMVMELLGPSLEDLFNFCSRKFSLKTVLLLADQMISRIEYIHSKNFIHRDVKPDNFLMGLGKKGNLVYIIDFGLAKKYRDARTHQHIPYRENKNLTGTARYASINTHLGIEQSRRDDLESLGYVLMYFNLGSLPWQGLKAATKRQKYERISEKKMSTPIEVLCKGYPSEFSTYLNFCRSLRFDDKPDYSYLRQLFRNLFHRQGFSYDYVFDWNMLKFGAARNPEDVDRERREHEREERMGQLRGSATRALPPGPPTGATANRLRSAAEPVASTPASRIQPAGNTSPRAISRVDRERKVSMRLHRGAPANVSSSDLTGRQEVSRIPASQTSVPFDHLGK

[15] = Unbound Cmax in Sprague-Dawley rat at 5 mg/kg, po measured for 24 hrs by LC-MS/MS analysis; type: ADME, organism-based; settings: in vivo
[16] = Oral bioavailability in C57BL/6 mouse at 5 mg/kg measured for 6 hrs by LC/MS-MS analysis; type: ADME, organism-based; settings: in vivo
[17] = Cmax in C57BL/6 mouse at 5 mg/kg, po measured for 6 hrs by LC/MS-MS analysis; type: ADME, organism-based; design: dose 5 mg/kg, time 6 hrs, route po; settings: in vivo
[18] = Oral bioavailability in C57BL/6 mouse at 30 mg/kg measured for 6 hrs by LC/MS-MS analysis; type: ADME, organism-based; settings: in vivo
[19] = Cmax in plasma of C57BL/6 mouse at 30 mg/kg, sc measured after 30 mins by LC/MS-MS analysis; type: ADME, organism-based; design: time 30 min, dose 30 mg/kg, route sc
[20] = Cmax in brain of C57BL/6 mouse at 30 mg/kg, sc measured after 30 mins by LC/MS-MS analysis; type: ADME, organism-based; design: time 30 min, dose 30 mg/kg, route sc
[21] = Cmax in brain of C57BL/6 mouse at 30 mg/kg, sc measured for 6 hrs by LC/MS-MS analysis; type: ADME, organism-based; design: time 6 hrs, dose 30 mg/kg, route sc
[22] = Cmax in plasma of C57BL/6 mouse at 30 mg/kg, sc measured for 6 hrs by LC/MS-MS analysis; type: ADME, organism-based; design: time 6 hrs, dose 30 mg/kg, route sc
[23] = Unbound drug concentration in brain of C57BL/6 mouse at 30 mg/kg, sc measured for 6 hrs by LC/MS-MS analysis; type: ADME, organism-based; settings: in vivo
[24] = Unbound drug concentration in plasma of C57BL/6 mouse at 30 mg/kg, sc measured for 6 hrs by LC/MS-MS analysis; type: ADME, organism-based; settings: in vivo
[25] = Ratio of unbound fraction in brain to plasma of C57BL/6 mouse at 30 mg/kg, sc measured for 6 hrs by LC/MS-MS analysis; type: ADME, organism-based; settings: read-out: K(p,uu,brain)
Brain = test: Ex vivo receptor occupancy at CK1 delta in brain of C57BL/6 mouse at 30 mg/kg, sc measured for 6 hrs by autoradiography relative to control; type: functional
[26] = Effect on circadian rhythms in C57BL/6 mouse assessed as phase delay in time at 30 mg/kg, sc qd for 10 days by wheel running assay; type: functional; settings: time 10 day
Mus musculus [27] = test: Effect on circadian rhythms in C57BL/6 mouse assessed as phase shift at 30 mg/kg, sc qd measured after 4 to 10 days by wheel running assay; type: functional, organism-based; settings: time 4-10 day
Mus musculus [28] = test: Effect on circadian rhythms in C57BL/6 mouse assessed as phase shift at 10 to 30 mg/kg, sc qd measured after 1 to 10 days by wheel running assay; type: functional, organism-based; settings: dose 10-30 mg/kg, time 1-10 day, tested as the 2H-labelled form
[29] = Intrinsic clearance in human liver microsomes at 1 uM preincubated for 5 mins followed by NADPH addition measured for 60 mins by LC-MS/MS analysis; type: ADME, Microsome; settings: time 65 min, read-out: CLH
[30] = Cmax in brain of C57BL/6 mouse at 30 mg/kg, sc measured after 15 mins by LC/MS-MS analysis; type: ADME, organism-based; design: time 15 min, dose 30 mg/kg, route sc
[31] = Cmax in plasma of C57BL/6 mouse at 30 mg/kg, sc measured after 15 mins by LC/MS-MS analysis; type: ADME, organism-based; design: dose 30 mg/kg, time 15 min, route sc

CC1(C)Cn2nc(-c3ccc(F)cn3)c(-c3ccnc4[nH]ncc34)c2CO1
microsomal CLint at 1 µM [1]: 17.2 µL/min/mg
Papp A→B at 1 h, 5 µM [2]: 7.4 ×10⁻⁶ cm/s
clearance [3]: 104 mL/min/kg
Vd [4]: 1.2 L/kg
bioavailability [5]: 19%
Cmax [6]: 400 nM
half-life [7]: 60 min
AUC(0-inf) [8]: 150 ng·h/mL
IC50 [9]: 3.2 µM
microsomal CLint at 1 µM [10]: 22.7 µL/min/mg
microsomal CLint at 1 µM [11]: < 7.7 µL/min/mg
microsomal CLint at 1 µM [12]: 12.3 µL/min/mg
IC50 (Cytochrome P450 1A2): > 20 µM
IC50 (Cytochrome P450 2C8): > 20 µM
IC50 (Cytochrome P450 2C9): > 20 µM
IC50 (Cytochrome P450 2C19): > 20 µM
IC50 (Cytochrome P450 2D6): > 20 µM
IC50 (Cytochrome P450 3A4): > 20 µM
IC50 [13]: 0.79 µM
IC50 [14]: 0.093 µM
fCmax [15]: 0.15 µM
bioavailability [16]: 4%
Cmax [17]: 700 nM
bioavailability [18]: 53%
Cmax [19]: 11300 nM
Cmax [20]: 2300 nM
Cmax [21]: 847 ng/g
Cmax [22]: 4110 ng/mL
Drug uptake(free) [23]: 668 nM
Cp(f) [24]: 2899 nM
Kp uu at 6 h [25]: 0.23
Occ (Brain): 56%
Time [26]: 0.83 h
Activity (Mus musculus [27]): Active
Activity (Mus musculus [28]): Active

[2H]C([2H])([2H])C1(C([2H])([2H])[2H])Cn2nc(-c3ccc(F)cn3)c(-c3ccnc4[nH]ncc34)c2CO1
microsomal CLint at 1 µM [29]: < 7.7 µL/min/mg
microsomal CLint at 1 µM [1]: 8.5 µL/min/mg
Papp A→B at 1 h, 5 µM [2]: 4.8 ×10⁻⁶ cm/s
clearance [3]: 44 mL/min/kg
Vd [4]: 1 L/kg
bioavailability [5]: 85%
Cmax [6]: 3000 nM
half-life [7]: 48 min
AUC(0-inf) [8]: 1940 ng·h/mL
microsomal CLint at 1 µM [10]: < 7.7 µL/min/mg
microsomal CLint at 1 µM [11]: < 7.7 µL/min/mg
microsomal CLint at 1 µM [12]: < 7.7 µL/min/mg
IC50 (Cytochrome P450 1A2): > 20 µM
IC50 (Cytochrome P450 2C8): > 20 µM
IC50 (Cytochrome P450 2C9): > 20 µM
IC50 (Cytochrome P450 2C19): > 20 µM
IC50 (Cytochrome P450 2D6): > 20 µM
IC50 (Cytochrome P450 3A4): > 20 µM
IC50 [13]: 0.41 µM
IC50 [14]: 0.11 µM
fCmax [15]: 1.1 µM
Cmax [30]: 3700 nM
Cmax [31]: 23900 nM
Cmax [21]: 1350 ng/g
Cmax [22]: 8850 ng/mL
Drug uptake(free) [23]: 789 nM
Cp(f) [24]: 6117 nM
Kp uu at 6 h [25]: 0.13
Occ (Brain): 60%
Time [26]: 1.25 h
